Results as given in publication PMC12508576, “Implementing a trilineage differentiation in the ReproTracker assay for improved teratogenicity assessment” (Frontiers in Toxicology, 2025).
Where two headings read alike, the source gives them in different places.

Assays:
[1] = tested on: hiPSCs differentiating into cardiomyocyte-like cells; test: ReproTracker cardiomyocyte differentiation assay
Procedure: (§1) Prior to differentiation, the cells were harvested and dissociated into single cells using Gibco™ TrypLE™ Select (ThermoFisher Scientific; Bleiswijk, Netherlands) for 5 min at 37 °C. Cells were seeded in Matrigel™-coated 24-well plates (ThermoFisher Scientific) in mTeSR™1 containing RevitaCell™ Supplement (ThermoFisher Scientific). […] The cells were cultured in this medium until D3. From D3 until the end of the differentiation protocol (D13) (one-step protocol), cells were cultured in N2B27 medium without ROCK inhibitor or LDN193189. In the case of the replating protocol, cells were replated at D7 and grown in the same medium until day 13. At the end of the differentiation, morphology of the cells was assessed using an Operetta CLS (Revvity) instrument. The expected morphology for each of the lineages, to ensure data acceptance and correct differentiations, is further described in Section 2.9 of the methods section. The trilineage differentiation was replicated in 96-well plates (ThermoFisher Scientific and Revvity Phenoplate) using the same differentiation protocols with an adapted number of cells for the seeding. And termination at D14.
(§2) Cells were harvested, and total RNA was isolated using the Maxwell® RSC simply RNA Cells Kit (cat. no.: #AS1390; Promega) on a Maxwell automated purification instrument (Maxwell RSC 48; Promega). […] Each individual primer was paired with its corresponding fluorophore and quencher and adjusted accordingly depending on gene abundance. Primer and probe sequences are described in Supplementary Table S1.
(§3) Data acceptance was based on the appropriate expression of the assessed biomarker genes in the differentiated populations, at appropriate times during differentiation. Failure to observe the expected temporal expression of key, lineage-specific biomarkers, during the cell fate choices associated with each differentiation protocol, would result in the experiment being invalidated.
(§4) To follow morphological changes throughout the hepatocyte and neural differentiation protocol, brightfield images of the cells were acquired after each medium refresh using an iRiS digital cell imaging microscope (Logos Biosystems) or an Operetta CLS (Revvity) instrument. Images were scored based on visual assessment. Cardiac contractability of cardiomyocytes was evaluated visually using an iRiS digital cell imaging microscope (Logos Biosystems).
(§5) Morphologically, cardiomyocytes are expected to group in fiber-like 3D structures that distribute throughout the entire plate. Aside from morphology, an additional criterion for cardiomyocyte differentiation in each experimental setup is for the contracting mature cardiomyocyte cultures exposed to solvent controls, to reach 75%. […] Neural rosettes are recognized by well-defined cell boundaries and multi-layered cultures. Functional/morphological assessment was completed independently from biomarker data analyses. Morphology scores were confirmed by a second person. Failure to observe the anticipated cell morphology/functionality throughout differentiation would result in invalidation of the experiment. Disruption in the morphology of cardiomyocytes is described as a lack of 3D-fibre-like structures in the cultures as well as a clear lack of contractions. Morphologically aberrant hepatocytes are characterized by a lack of polygonal structures with smaller cytoplasm that in the control cultures and the formation of dark cell-dense structures, commonly indicative of clumps of dead cells with big empty spaces between cell colonies.

[2] = tested on: hiPSCs differentiating into hepatocyte-like cells; test: ReproTracker hepatocyte differentiation assay
Procedure: as §1, §2, §3, §4, §5

[3] = tested on: hiPSCs differentiating into neural rosette-like cells
Procedure: as §1, §2, §3, §4, §5

[4] = tested on: hiPSCs trilineage differentiation (cardiomyocytes, hepatocytes, neural rosette-like cells)
Text: (§6) In ReproTracker, teratogenicity prediction of test compounds is based on a Weight of Evidence (WoE) approach, which considers both the significant decrease in biomarker expression and the morphological/functional changes following exposure to test compounds throughout differentiation assays.
(§7) This threshold, for any given biomarker, is defined as the average minus one time the standard deviation (SD) of the biomarker expression levels in solvent-exposed control cultures throughout the experiment. Reduced expression of the selected biomarkers below the set threshold in a concentration-dependent manner, upon exposure to a minimum of 2 consecutive non-cytotoxic concentrations would be considered significant (noted as +). A decrease in expression below the threshold without a clear dose-response would lead to an equivocal classification (noted as (+)). An increase in expression or a lack of response would be considered negative (noted as -). Disruption of morphology/functionality of the cultures upon compound exposure at the two highest tested concentrations in all biological replicates is considered as a morphological disruption (noted as +). Absence of significant effects results in a negative score (noted as -).
(§8) For each differentiation assay, the expression of two biomarkers and a morphological/functional read-out are considered. In the hepatocyte and cardiomyocyte differentiation, FOXA2 and BMP4 are considered germ-layer-specific biomarkers, while AFP and MYH6 are considered cell-specific biomarkers, respectively. When applying the WoE approach, the cell-specific biomarkers in hepatocyte and cardiomyocyte differentiation are given higher weight compared to the germ-layer specific biomarkers and morphology/functionality. For the neural differentiation, both PAX6 and NESTIN are given equal weight as they are considered cell-specific markers. In this case, both biomarkers are given higher weight than the morphological read-out.
(§9) Every measurement/observation is assigned a score (positive, negative, or equivocal). […] In the ReproTracker assay, a compound is identified as a teratogen if it receives a positive score in at least one of the trilineage differentiation assays (cardiomyocyte, hepatocyte, or neural differentiation). […] If neither biomarker expression levels nor morphology/functionality are affected in any of the differentiation assays, the response is considered negative.

[5] = cited from earlier work
[6] = tested on: hiPSCs trilineage differentiation (cardiomyocytes, hepatocytes, neural rosette-like cells); test: ReproTracker trilineage differentiation, overall teratogenicity prediction; conditions: lowest tested concentration with significant decrease of at least one biomarker, trilineage assay; 'N.d. up to x' given as > x
Text: as §6, §7, §8, §9

[7] = tested on: hiPSCs differentiating into cardiomyocyte-like cells; conditions: lineage call; footnote b: previously published data; ref Jamalpoor et al., 2022; cited from earlier work
[8] = tested on: hiPSCs differentiating into hepatocyte-like cells; conditions: cited from earlier work
[9] = read-out: Human therapeutic cmax, Table 1 (R3 I (2021), Schulz et al. (2020) and others)
[10] = lineage call, footnote b: previously published data, ref Jamalpoor et al., 2022
[11] = lineage call (positive/equivocal/negative)

Row | SMILES | ReproTracker results Cardiomyocyte-like cells [1] | ReproTracker results Hepatocyte-like cells [2] | ReproTracker results Neural rosette-like cells [3] | LOAEL compared with respective human therapeutic Cmax ([4]; human) | ReproTracker results LOAEL ([4]; human) [µM] | Cmax [5, 9] [µM] | other results
1 | CC1=C(/C=C/C(C)=C/C=C/C(C)=C\C(=O)O)C(C)(C)CCC1 [Isotretinoin] | Positive | Positive | Positive | equal to or below | ≤0.0041 | 0.004 to 0.008 | 
2 | NC(=O)NO [Hydroxyurea] | Negative | Positive | Positive | equal to or below |  | 263 | ReproTracker results LOAEL [6]: ≤2.0 µM
3 | CC1(C)S[C@@H]2[C@H](NC(=O)[C@H](N)c3ccc(O)cc3)C(=O)N2[C@H]1C(=O)O [Amoxicillin] |  |  | Negative |  |  | 1.4 to 41 | ReproTracker results Cardiomyocyte-like cells [7]: Negative
4 | CCN(CC)CCNC(=O)c1cc(Cl)c(N)cc1OC [Metoclopramide] |  |  | Negative |  |  | 0.03 to 0.5 | ReproTracker results Cardiomyocyte-like cells [7]: Negative; ReproTracker results Hepatocyte-like cells [8, 10]: Negative; ReproTracker results LOAEL [6]: N.d. up to 62.5 µM
5 | COc1ccccc1Oc1c(NS(=O)(=O)c2ccc(C(C)(C)C)cc2)nc(-c2ncccn2)nc1OCCO [Bosentan] | Positive | Equivocal | Negative |  | 15.6 | 1.3 to 2.9 | 
6 | N#C[C@@H]1CCCN1C(=O)CNC12CC3CC(CC(O)(C3)C1)C2 [Vildagliptin] | Negative |  | Positive |  | 125 | 0.6 to 1 | ReproTracker results Hepatocyte-like cells [2, 11]: Negative
7 | Cn1cc[nH]c1=S [Methimazole] |  |  | Positive |  |  | 4.4 to 20.2 | ReproTracker results Cardiomyocyte-like cells [7]: Positive
8 | CC(=O)CC(c1ccccc1)c1c(O)c2ccccc2oc1=O (stereo not drawn) [Warfarin] |  |  |  |  |  |  | ReproTracker results Neural rosette-like cells [3, 11]: Negative; ReproTracker results Hepatocyte-like cells [8]: Positive; Cmax ([5]; human, in vivo): 3.2 to 9.7 µM; ReproTracker results LOAEL [6]: 62.5 to 250 µM
9 | NS(=O)(=O)c1cc2c(cc1Cl)NCNS2(=O)=O [Hydrochlorothiazide] |  |  | Negative |  |  | 0.1 to 0.2 | ReproTracker results Cardiomyocyte-like cells [7]: Positive; ReproTracker results Hepatocyte-like cells [8, 10]: Positive
10 | Nc1ccn([C@@H]2O[C@H](CO)[C@@H](O)[C@@H]2O)c(=O)n1 [Cytarabine] | Positive | Negative | Positive | equal to or below |  | 0.2 to 2.1 | ReproTracker results LOAEL [4]: Positive
11 | OC(Cn1cncn1)(Cn1cncn1)c1ccc(F)cc1F [Fluconazole] | Negative | Negative | Positive |  | 125 | 6.5 to 19.6 | NESTIN gene expression at D13 [3]: decreased; PAX6 gene expression at D7 [3]: decreased
12 | Nc1nc2ncc(CNc3ccc(C(=O)N[C@@H](CCC(=O)O)C(=O)O)cc3)nc2c(=O)[nH]1 [Folic acid] |  |  | Negative |  |  | 0.002 to 0.01 | ReproTracker results Hepatocyte-like cells [8, 10]: Negative; ReproTracker results LOAEL [6]: N.d. up to 1.95 µM
13 | C[C@@H]1C[C@H]2[C@@H]3CCC4=CC(=O)C=C[C@]4(C)[C@@]3(F)[C@@H](O)C[C@]2(C)[C@@]1(O)C(=O)CO [Dexamethasone] | Negative | Negative | Positive |  | 1.95 | 0.1 to 0.7 | 
14 | NC(=O)c1ncn([C@@H]2O[C@H](CO)[C@@H](O)[C@H]2O)n1 [Ribavirin] | Negative | Negative | Positive | equal to or below | ≤1 | 3.2 | 
15 | COc1cc(C)c(/C=C/C(C)=C/C=C/C(C)=C/C(=O)O)c(C)c1C [Acitretin] |  |  |  | equal to or below |  | 0.03 to 0.9 | ReproTracker results Cardiomyocyte-like cells [1, 11]: Positive; ReproTracker results Hepatocyte-like cells [2, 11]: Positive; ReproTracker results Neural rosette-like cells [3, 11]: Positive; ReproTracker results LOAEL [6]: ≤0.2 µM
16 | Cc1ccc(NC(=O)c2ccc(CN3CCN(C)CC3)cc2)cc1Nc1nccc(-c2cccnc2)n1 [Imatinib] | Negative |  | Positive | equal to or below | 0.1 | 1.5 | ReproTracker results Hepatocyte-like cells [2, 11]: Positive
17 | CC(=O)Oc1ccccc1C(=O)O [Aspirin] | Negative | Positive | Negative | equal to or below | 500 | 111 to 1110 | 
18 | Cc1nc(Nc2ncc(C(=O)Nc3c(C)cccc3Cl)s2)cc(N2CCN(CCO)CC2)n1 [Dasatinib] | Positive | Negative | Positive | equal to or below | 0.00003 to 0.00013 | 0.07 | 
19 | O=C1NC(=O)C(c2ccccc2)(c2ccccc2)N1 [Phenytoin] | Negative | Positive | Positive | equal to or below | 31.3 | 39.6 to 79.3 | NESTIN gene expression at D13 [3]: without affecting; PAX6 gene expression at D7 [3]: downregulated; morphology of neural rosette-like cells [3]: disrupted
